In ChEMBL document CHEMBL2074546, “Inhibition of P-glycoprotein by flavonoid derivatives in adriamycin-resistant human myelogenous leukemia (K562/ADM) cells” (Cancer Lett, 2002):

Target: ATP-dependent translocase ABCB1 (Homo sapiens, UniProt P08183)
Assay: TP_TRANSPORTER: increase in Vincristine intracellular accumulation (0.025 uM) in K562/ADM cells
Format: functional, cell-based
Details: k562/adr

ATP-dependent translocase ABCB1, sequence (P08183 whole entry): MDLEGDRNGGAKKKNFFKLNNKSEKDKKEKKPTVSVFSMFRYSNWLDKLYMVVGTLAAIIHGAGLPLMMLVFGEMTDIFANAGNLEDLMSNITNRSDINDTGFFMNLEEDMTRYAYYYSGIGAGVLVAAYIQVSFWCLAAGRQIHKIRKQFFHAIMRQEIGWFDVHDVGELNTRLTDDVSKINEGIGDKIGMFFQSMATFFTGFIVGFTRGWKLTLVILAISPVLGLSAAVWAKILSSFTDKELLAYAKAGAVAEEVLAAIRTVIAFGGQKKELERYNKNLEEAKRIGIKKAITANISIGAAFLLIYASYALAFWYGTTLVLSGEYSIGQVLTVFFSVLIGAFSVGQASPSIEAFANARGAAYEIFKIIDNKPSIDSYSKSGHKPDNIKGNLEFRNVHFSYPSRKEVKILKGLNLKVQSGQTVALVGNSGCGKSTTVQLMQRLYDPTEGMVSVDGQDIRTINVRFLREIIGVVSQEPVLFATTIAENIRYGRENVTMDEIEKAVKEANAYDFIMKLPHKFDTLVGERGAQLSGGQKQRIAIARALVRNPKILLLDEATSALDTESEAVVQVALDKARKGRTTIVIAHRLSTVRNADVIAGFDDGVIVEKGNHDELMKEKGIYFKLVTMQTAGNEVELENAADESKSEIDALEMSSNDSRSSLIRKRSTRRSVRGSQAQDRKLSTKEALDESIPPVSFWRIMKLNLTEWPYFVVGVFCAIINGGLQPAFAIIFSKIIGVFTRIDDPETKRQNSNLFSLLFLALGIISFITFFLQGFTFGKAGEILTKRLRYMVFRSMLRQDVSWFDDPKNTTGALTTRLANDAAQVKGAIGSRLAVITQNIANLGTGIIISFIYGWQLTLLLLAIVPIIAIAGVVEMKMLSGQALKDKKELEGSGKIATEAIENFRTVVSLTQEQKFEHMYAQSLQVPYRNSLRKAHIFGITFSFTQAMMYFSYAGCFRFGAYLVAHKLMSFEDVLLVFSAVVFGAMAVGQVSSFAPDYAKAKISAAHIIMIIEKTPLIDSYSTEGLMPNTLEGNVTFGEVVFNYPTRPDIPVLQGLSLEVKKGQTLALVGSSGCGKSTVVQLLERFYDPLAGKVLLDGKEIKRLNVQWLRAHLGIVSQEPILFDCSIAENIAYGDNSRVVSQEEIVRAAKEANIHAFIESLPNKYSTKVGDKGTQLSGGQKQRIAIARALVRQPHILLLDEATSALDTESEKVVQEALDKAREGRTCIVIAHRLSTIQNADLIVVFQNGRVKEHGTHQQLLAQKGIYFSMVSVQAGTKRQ

SMILES | Activity
C=CCOc1ccc(-c2oc3cc(OCC=C)cc(O)c3c(=O)c2OCC=C)c(OCC=C)c1 [MORIN PENTAALLYL ETHER] | inhibitor [(at a rough estimate) 500 % of control]
CCOc1ccc(-c2oc3cc(OCC)cc(O)c3c(=O)c2OCC)c(OCC)c1 [MORIN PENTAETHYL ETHER] | inhibitor [(at a rough estimate) 1430 % of control]
COc1ccc(-c2oc3cc(OC)cc(O)c3c(=O)c2OC)c(OC)c1 [MORIN PENTAMETHYL ETHER] | inhibitor [(at a rough estimate) 470 % of control]
CCCOc1ccc(-c2oc3cc(OCCC)cc(O)c3c(=O)c2OCCC)c(OCCC)c1 [MORIN PENTAPROPYL ETHER] | inhibitor [(at a rough estimate) 390 % of control]
